Experimental data from US4120947A, “Xanthine compounds and method of treating bronchospastic and allergic diseases” (priority 1976, dated 1978).
Like-named read-outs stand apart in the source and are kept apart here.

Key:
[1] = system: histamine-induced bronchoconstriction in the guinea pig; test: BD: bronchodilator activity against histamine-induced bronchoconstriction in the guinea pig; conditions: for inhibition in vivo at 40 mg/kg / inhibition in vivo at 80 mg/kg / inhibition in vivo at 20 mg/kg / inhibition in vivo at 60 mg/kg / inhibition in vivo at 15 mg/kg / inhibition in vivo at 10 mg/kg / inhibition in vivo at 150 mg/kg / inhibition in vivo at 100 mg/kg: Cavia porcellus, po, read-out: BD (guinea pig), % protection; for onset and duration of action, in words / lethal / bronchodilator effectiveness, in words: guinea pig; for onset and duration of action, in words / bronchodilator effectiveness, in words: comparison with corresponding compound
Source text: BD Bronchodilator activity evaluated against histamine-induced bronchoconstriction in the guinea pig, and expressed as % protection at the stated time interval (in minutes and hours) post-drug against histamine agonist. Doses are expressed in milligrams per kilogram of body weight (mpk) per os (po) or intraperitoneally (ip).
A modification of the method of Siegmund. O.H., et al., J. Pharmacol. and Exp. Therap. 90:254-9, 1947, is used. Healthy guinea pigs weighing from 250 to 300 grams are placed four at a time and separated by wiring screening in an 11 liter plastic chamber, at the time of peak activity following drug administration. The challenge consists of histamine diphosphate (1% solution) aerosolized in a de Vilbiss -40 nebulizer at 200 mm Hg. Times for prostration are recorded.
Per cent protection is calculated as follows: [formula] wherein the times are measured in seconds.
In interpreting the BD data it should be noted that a dose giving less than 40-50% protection is not considered useful. Differences in percent protection of less than 10% are probably not significant.

[2] = system: antigen-induced bronchconstriction in rats sensitized with N. brasliensis; test: AA: antiallergy (anti-anaphylactic) activity against antigen-induced bronchoconstriction in sensitized rats
Source text: The animals are subdivided into control and test groups. Test animals receive a drug either orally, intraperitoneally or intravenously and are challenged with intravenous antigen at fixed time intervals after dosing. Antigen-induced increases in tracheal pressure are monitored and reflect the extent of bronchoconstriction.

[3] = system: guinea pig tracheal chain preparation; test: SP: spasmolytic activity in vitro, guinea pig tracheal chain preparation; conditions: Cavia porcellus, read-out: SP in vitro C, molar concentration required to produce maximum relaxation
Source text: SP Spasmolytic activity evaluated in vitro using guinea pig tracheal chain preparation, and expressed as the molar (M) concentration required to produce maximum relaxation. The method used in that of Castillo and de Beer, J. Pharmac. Expt. Therap. 90, 104, 1947.

LD50 mouse = assay type: in vivo; conditions: in vivo, po
Method: (§1) The LD50 was determined in three species, the mouse (male, 18-25 g), the albino rat (female, 150-200 g) and the albino guinea pig (male 180-280 g) by oral administration and in the albino rat by intraperitoneal administration. The animals are fasted overnight prior to testing. Six groups of ten animals are used; five groups are dosed with the test substance, the sixth group serves as a control and receives the drug vehicle at the highest test concentration. The compounds were administered in a 0.5% gum tragacanth solution in distilled water using a constant logarithmic increment in dose. Dose volume ranged from […].
(§2) The animals were housed five per cage (rat and guinea pig) or ten per cage (mouse) with free access to food and water. The number of dead animals was recorded daily for five consecutive days. The total mortality per group of ten for each dose level was recorded and LD50 with Confidence Limits calculated according to the method described by Weil, C.

in vivo = test: in vivo
Method: as §1, §2

[4] = system: histamine-induced bronchoconstriction in the dog; test: CP: cardiopulmonary activity against histamine-induced bronchoconstriction in the dog; assay type: in vivo; conditions: histamine challenge
Source text: Pretreatment with bronchodilator drugs aims to block the bronchospastic response to histamine. Each dog serves as its own control.

[5] = system: passive cutaneous anaphylaxis in the rat; test: PCA: passive cutaneous anaphylaxis in the rat; assay type: in vivo
Method: PCA Antianaphylactic activity against passive cutaneous anaphylaxis in the rat, expressed as % protection against antigen-induced wheal formation.
The method used is that of Ogilvie, B. M., Immunology 12, 113-131 (1967). Reaginic […] antibodies develope in the rat following subcutaneous injection of Nippostrongylus brasiliensis larvae. Antisera, collected 28 days later are injected subcutaneously into new rats.

[6] = Rattus norvegicus, ip, 1 h, read-out: AA (rat), % protection
[7] = Rattus norvegicus, po, 1 h, read-out: AA (rat), % protection

Compound: CCc1nc2c(c(=O)n(CC)c(=O)n2CC(C)CC)n1C(=O)OC (racemic) [Compound 4498, DL-1,8-diethyl-3-(2-methyl-1-butyl)xanthine-7-carboxylic acid, methyl ester]
- inhibition in vivo at 40 mg/kg ([1]; 1 h): 15%
- inhibition in vivo at 80 mg/kg ([1]; 1 h): 63%
- inhibition in vivo at 40 mg/kg ([1]; 6 h): 38%
- inhibition in vivo at 80 mg/kg ([1]; 6 h): 79%

Compound: CCCC(C)Cn1c(=O)n(C)c(=O)c2c1ncn2C(=O)OC (stereo not drawn) [Compound 4377]
- inhibition in vivo at 20 mg/kg ([1]; 1 h): 64%
- inhibition in vivo at 80 mg/kg ([1]; 1 h): 72%
- inhibition in vivo at 80 mg/kg ([1]; 4 h): 0%

Compound: COC(=O)n1c(C)nc2c1c(=O)n(C)c(=O)n2C [Compound 4378, 1,3,8-trimethylxanthine-7-carboxylic acid, methyl ester]
- inhibition in vivo at 75 mg/kg [2, 6]: 54%
- EC (maximum relaxation) [3]: 100000 µM
- inhibition in vivo at 60 mg/kg ([1]; 1 h): 96%
- inhibition in vivo at 60 mg/kg ([1]; 4 h): 95%
- inhibition in vivo at 60 mg/kg ([1]; 6 h): 89%
- onset and duration of action, in words [1]: effective at lower doses and for longer duration

Compound: CC(C)Cn1c(=O)n(C)c(=O)c2[nH]cnc21 [Compound 4258, 1-methyl-3-(isobutyl)xanthine]
- AA (rat), toxicity ([2]; 2.0 mpK ip, 1h): tox
- inhibition in vivo at […] [2, 6]: 79%
- inhibition in vivo at 15 mg/kg ([1]; 0.5 h): 45%
- inhibition in vivo at 15 mg/kg ([1]; 1 h): 75%
- lethal ([1]; 25 mpK po): 2/4

Compound: CCOC(=O)n1c(C)nc2c1c(=O)n(C)c(=O)n2CC(C)CC (racemic) [Compound 4477, DL-1,8-dimethyl-3-(2-methyl-1-butyl)xanthine-7-carboxylic acid, ethyl ester]
- inhibition in vivo at 10 mg/kg ([1]; 0.5 h): 47%
- inhibition in vivo at 10 mg/kg ([1]; 1 h): 87%
- inhibition in vivo at 10 mg/kg ([1]; 6 h): 50%

Compound: CCCCCn1c(=O)n(C)c(=O)c2c1nc(C)n2C(=O)OC [Compound 4507, 1,8-dimethyl-3-n-pentylxanthine-7-carboxylic acid, methyl ester]
- inhibition in vivo at 10 mg/kg ([1]; 1 h): 26%
- inhibition in vivo at 20 mg/kg ([1]; 1 h): 52%
- inhibition in vivo at 40 mg/kg ([1]; 1 h): 100%
- inhibition in vivo at 40 mg/kg ([1]; 6 h): 63%
- lethal ([1]; 80 mpK po): 2/2

Compound: COC(=O)n1cnc2c1c(=O)n(C)c(=O)n2CC(C)C [Compound 4274, 1-methyl-3-(isobutyl)xanthine-7-carboxylic acid, methyl ester]
- inhibition in vivo at 5 mg/kg [2, 6]: 74%
- EC (maximum relaxation) [3]: 500 µM
- inhibition in vivo at 15 mg/kg ([1]; 0.5 h): 92%
- inhibition in vivo at 15 mg/kg ([1]; 1 h): 87%
- inhibition in vivo at 15 mg/kg ([1]; 2 h): 64%
- inhibition in vivo at 15 mg/kg ([1]; 4 h): 18%
- lethal ([1]; 40 mpK po): 1/6
- bronchodilator effectiveness, in words [1]: greater protection than 4258 at equal doses

Compound: CCC(C)Cn1c(=O)n(C)c(=O)c2c1ncn2C(=O)OC (stereo not drawn) [Compound 4380, 1-methyl-3-(2-methyl-1-butyl)xanthine-7-carboxylic acid, methyl ester]
- inhibition in vivo at 5 mg/kg [2, 7]: 66%
- EC (maximum relaxation) [3]: 1430 µM
- BD (guinea pig), % protection ([1]; 20 mpK po, 1h): 64%
- inhibition in vivo at 20 mg/kg ([1]; 1 h): 64%
- inhibition in vivo at 40 mg/kg ([1]; 1 h): 99%
- inhibition in vivo at 40 mg/kg ([1]; 4 h): 57%
- inhibition in vivo at 40 mg/kg ([1]; 6 h): 12%

Compound: CCCOC(=O)n1c(C)nc2c1c(=O)n(C)c(=O)n2CC(C)CC (racemic) [Compound 4488, DL-1,8-dimethyl-3-(2-methyl-1-butyl)xanthine-7-carboxylic acid, n-propyl ester]
- inhibition in vivo at 10 mg/kg ([1]; 1 h): 24%
- inhibition in vivo at 20 mg/kg ([1]; 1 h): 78%
- inhibition in vivo at 40 mg/kg ([1]; 1 h): 100%
- inhibition in vivo at 10 mg/kg ([1]; 6 h): 44%
- inhibition in vivo at 20 mg/kg ([1]; 6 h): 68%
- inhibition in vivo at 40 mg/kg ([1]; 6 h): 89%
- lethal ([1]; 80 mpK po): 1/4

Compound: CCCC(C)Cn1c(=O)n(C)c(=O)c2c1nc(C)n2C(=O)OC (racemic) [Compound 4515, DL-1,8-dimethyl-3-(2-methyl-1-pentyl)xanthine-7-carboxylic acid, methyl ester]
- inhibition in vivo at 20 mg/kg ([1]; 1 h): 7%
- inhibition in vivo at 40 mg/kg ([1]; 1 h): 100%

Compound: CCc1nc2c(c(=O)n(C)c(=O)n2CC(C)CC)n1C(=O)OC (racemic) [Compound 4491, DL-1-methyl-3-(2-methyl-1-butyl)-8-ethyl-xanthine-7-carboxylic acid, methyl ester]
- inhibition in vivo at 10 mg/kg ([1]; 1 h): 25%
- inhibition in vivo at 40 mg/kg ([1]; 1 h): 52%

Compound: CCC(C)Cn1c(=O)n(C)c(=O)c2[nH]c(C)nc21 (stereo not drawn) [Compound 4383, 1,8-dimethyl-3-(2-methyl-1-butyl)xanthine]
- LD50 (LD50 mouse): 60.6 mg/kg
- LD50 (in vivo; in vivo, rat, po): 887 mg/kg
- BD (guinea pig), % protection ([1]; 10 mpK po, 30'): 35%
- BD (guinea pig), % protection ([1]; 20 mpK po, 4h): 100%
- BD (guinea pig), % protection ([1]; 20 mpK po, 6h): 97%
- inhibition in vivo at 10 mg/kg ([1]; 1 h): 63%

Compound: COC(=O)n1c(C)nc2c1c(=O)n(C)c(=O)n2CCC(C)C [Compound 4505, 1,8-dimethyl-3-isopentylxanthine-7-carboxylic acid, methyl ester]
- lethal ([1]; 80 mpK po): 3/5

Compound: COC(=O)n1c(C)nc2c1c(=O)n(C)c(=O)n2CC(C)C [Compound 4390, 1,8-dimethyl-3-isobutylxanthine-7-carboxylic acid, methyl ester]
- inhibition in vivo at 2 mg/kg [2, 6]: 60%
- inhibition in vivo at 4 mg/kg [2, 6]: 52%
- inhibition in vivo at 2.5 mg/kg [2, 7]: 77%
- EC (maximum relaxation) [3]: 1000 µM
- LD50 (LD50 mouse): 27.6 mg/kg
- LD50 (in vivo; guinea pig, po): 25.2 mg/kg
- LD50 (in vivo; in vivo, rat, ip): 9.1 mg/kg
- LD50 (in vivo; in vivo, rat, po): 33.5 mg/kg
- inhibition in vivo at 10 mg/kg ([1]; 0.5 h): 49%
- inhibition in vivo at 10 mg/kg ([1]; 1 h): 86%
- inhibition in vivo at 10 mg/kg ([1]; 6 h): 79%
- inhibition in vivo at 10 mg/kg ([1]; 10 h): 48%
- lethal ([1]; 20 mpK po): 1/2
- onset and duration of action, in words [1]: effective at lower doses and for longer duration
- cardiopulmonary / bronchodilator activity in the dog, in words [4]: significantly reduce the decrease in pulmonary compliance and increase in pulmonary resistance due to histamine administration
- Wheal Diameter, % Δ ([5]; 20 mg/kg po): 60%
- Wheal Diameter, Response (Mean ± S.E.M.) ([5]; 20 mg/kg po): 0.74 ± 0.21 cm
- Wheal Intensity, % Δ ([5]; 20 mg/kg po): 53%
- Wheal Intensity, Response (Mean ± S.E.M.) ([5]; 20 mg/kg po): 1.10 ± 0.23
- antiallergy activity, in words ([5]; rat passive cutaneous anaphylaxis): effective antiallergy agents

Compound: CCC(C)Cn1c(=O)n(CC)c(=O)c2c1nc(C)n2C(=O)OC (racemic) [Compound 4494, DL-1-ethyl-3-(2-methyl-1-butyl)-8-methylxanthine-7-carboxylic acid, methyl ester]
- inhibition in vivo at 10 mg/kg ([1]; 1 h): 0%
- inhibition in vivo at 40 mg/kg ([1]; 1 h): 9%
- inhibition in vivo at 10 mg/kg ([1]; 6 h): 49%
- inhibition in vivo at 40 mg/kg ([1]; 6 h): 80%
- lethal ([1]; 80 mpK po): 2/2

Compound: Cc1nc2c([nH]1)c(=O)n(C)c(=O)n2C [Compound 4296, 1,3,8-trimethylxanthine]
- inhibition in vivo at 75 mg/kg [2, 6]: 49%
- inhibition in vivo at 150 mg/kg ([1]; 0.5 h): 68%
- inhibition in vivo at 100 mg/kg ([1]; 1 h): 53%
- inhibition in vivo at 150 mg/kg ([1]; 1 h): 80%
- inhibition in vivo at 150 mg/kg ([1]; 2 h): 71%
- inhibition in vivo at 100 mg/kg ([1]; 4 h): 45%
- inhibition in vivo at 150 mg/kg ([1]; 4 h): 79%
- inhibition in vivo at 100 mg/kg ([1]; 6 h): 43%
- inhibition in vivo at 150 mg/kg ([1]; 6 h): 86%
- inhibition in vivo at 100 mg/kg ([1]; 10 h): 23%
- inhibition in vivo at 150 mg/kg ([1]; 10 h): 85%

Compound: COC(=O)n1cnc2c1c(=O)n(C)c(=O)n2C [Compound 4260, 1,3-dimethylxanthine-7-carboxylic ester, methyl ester]
- inhibition in vivo at 75 mg/kg [2, 6]: 82%
- EC (maximum relaxation) [3]: 50000 µM
- inhibition in vivo at 80 mg/kg ([1]; 0.5 h): 99%
- inhibition in vivo at 80 mg/kg ([1]; 1 h): 100%
- inhibition in vivo at 80 mg/kg ([1]; 2 h): 86%
- inhibition in vivo at 80 mg/kg ([1]; 4 h): 95%
- inhibition in vivo at 80 mg/kg ([1]; 6 h): 0%
- bronchodilator effectiveness, in words [1]: clearly superior to theophylline at the same dose (80 mpK)
- onset and duration of action, in words [1]: more potent, with both faster onset and longer duration of action
- bronchodilator effectiveness, in words ([1]; listed as 1,3-dimethyl-7-carbomethoxyxanthine): significantly more effective than theophylline itself
